The text below walks through data of patent US20080287514A1, “Topical compositions containing metronidazole” (priority 2007, published 2008).

SMILES strings stand for the structures. Where only a bound is given, the exact number is not on record here.

Data set [1] can be described thus: Physical stability test (crystal formation or precipitation after 24 hours at room temperature and 7 days at about 4 °C). Format: physicochemical. The settings on record: for Results from stability test: aqueous solution, 7 days at about 4 °C. The method, then:
The solubility enhancing effect of the combination of niacinamide and hydroxyalkyl urea in increasing the solubility of metronidazole in the aqueous compositions is evaluated by physical stability of the prepared compositions.
Therefore, the compositions in accordance with the present invention are subject to a physical stability test. The protocol for the stability test is as follows: metronidazole and the solubility enhancing agents are combined with water either at room temperature or elevated temperature while stirring until dissolved. The solutions are permitted to cool to room temperature. Customary auxiliaries and additives may be added to the aqueous solutions containing solubilized metronidazole and solubility enhancing agents. The solutions may be gelled by using the suitable gelling agents. The compositions both in gel or solution form are then packaged in clear glass vials and sealed. The vials are kept at room temperature for 24 hours and monitored for crystal formation or precipitation. After 24 hours, the vials are placed in a refrigerator maintained at a temperature of about 4° C. for 7 days. After 7 days, the vials are removed from the refrigerator. Evidence of crystal formation or precipitation in the compositions is examined.
Each formulation was prepared by combining niacinamide and metronidazole in water (q.s 100%). The mixture was kept at a temperature of about 45° C. while stirring until dissolved. The solutions were permitted to cool to room temperature, packaged and sealed in glass vials. The stability tests described in Example 1 were performed and the test results were recorded.
Each formulation was prepared by combining N-2-hydroxyethyl urea and metronidazole in water (q.s. 100%). The mixture was kept at a temperature of about 45° C. while stirring until dissolved. The solutions were permitted to cool to room temperature, packaged and sealed in glass vials. The stability tests described in Example 1 were performed and the test results were recorded.
Each formulation was prepared by combining N-2-hydroxyethyl urea, niacinamide, and metronidazole in water (q.s. 100%). N-2-hydroxyethyl urea is available from a number of commercial sources, for example, Aldrich Chemical Company (Milwaukee, Wis.). The mixture was kept either at room temperature or at a temperature of about 45° C. while stirring until dissolved. The solutions were permitted to cool to room temperature, packaged and sealed in glass vials. The stability tests described in Example 1 were performed and the test results were recorded.

For data set [2] the following is noted: at 25 °C; cited from earlier work.

As to `Cc1ncc([N+](=O)[O-])n1CCO` [Metronidazole, 1-(2-hydroxyethyl)-2-methyl-5-nitroimidazole], the “Results from stability test” value is given as “Crystals” in data set [1] (1.0% metronidazole, 1.0% N-2-hydroxyethyl urea, 3.0% niacinamide); “Clear” in data set [1] (1.0% metronidazole, 1.0% N-2-hydroxyethyl urea, 4.0% niacinamide); “Crystals formed” in data set [1] (1.0% metronidazole, 2% niacinamide); “Clear” in data set [1] (1.0% metronidazole, 3.0% N-2-hydroxyethyl urea, 3.0% niacinamide); “Crystals formed” in data set [1] (1.0% metronidazole, 3% niacinamide); “Crystals” in data set [1] (1.0% metronidazole, 4.0% N-2-hydroxyethyl urea, 1.0% niacinamide). The “Results from stability test” value in data set [1] (1.0% metronidazole, 4% niacinamide) is “Crystals formed”; in data set [1] (1.0% metronidazole, 5.0% N-2-hydroxyethyl urea, 1.0% niacinamide), “Clear”; in data set [1] (1.0% metronidazole, 5.0% N-2-hydroxyethyl urea, 1.0% niacinamide, listed as metronidazole), “stable”; in data set [1] (1.0% metronidazole, 5.0% N-2-hydroxyethyl urea, 2.0% niacinamide), “Clear”; in data set [1] (1.0% metronidazole, 5% niacinamide), “Clear”; in data set [1] (1.0% metronidazole, 13% N-2-hydroxyethyl urea), “Crystals formed”. The “Results from stability test” value in data set [1] (1.0% metronidazole, 14% N-2-hydroxyethyl urea) is recorded as “Crystals formed”; in data set [1] (1.0% metronidazole, 15% N-2-hydroxyethyl urea), “Crystals formed”; in data set [1] (1.0% metronidazole, 16% N-2-hydroxyethyl urea), “Clear”; in data set [1] (1.2% metronidazole, 10.0% N-2-hydroxyethyl urea, 2.0% niacinamide), “Clear”.

For the compound `NC(=O)NCCO` [N-2-hydroxyethyl urea], the “concentration of N-2-hydroxyethyl urea required to obtain a stable aqueous solution of 1.0% metronidazole” value in data set [1] (N-2-hydroxyethyl urea as the only solubility enhancing agent) is “about 16%”. The “concentration of N-2-hydroxyethyl urea needed to obtain a stable aqueous solution of 1.0% metronidazole” value in data set [1] (concentration of niacinamide is 1.0%) is at least 5.0%.

For `NC(=O)c1cccnc1` [niacinamide], the water solubility limit entry in data set [2] was “about 50 % by weight”. In data set [1] (concentration of N-2-hydroxyethyl urea is 1.0%), the “concentration of niacinamide needed to obtain a stable aqueous solution of 1.0% metronidazole” value is listed as “about 4.0%”. Besides, the “N-2-hydroxyethyl urea functionally equivalent to 1% niacinamide in inducing the solubility enhancing effect” value in data set [1] (from Examples 2 and 3, 1.0% metronidazole) is given as “about 3.2%”. For the same compound, the “concentration of niacinamide required to obtain a stable aqueous solution of 1.0% metronidazole” value in data set [1] (niacinamide as the only solubility enhancing agent) was “about 5%”.
